{"source": "patent US20140357487A1", "about": "“PLANTS HAVING INCREASED TOLERANCE TO HERBICIDES” (BASF SE, priority 2011, published 2014)", "format_in_all_cases": "biochemical", "key": {"[1]": {"target": "T1, Arabidopsis HPPD (SEQ ID: 53) (Arabidopsis thaliana, UniProt P93836)", "T1 construct": "His6 (N); made in house; host or cells: E. coli BL21 (DE3)", "T1 sequence (P93836 1-445)": "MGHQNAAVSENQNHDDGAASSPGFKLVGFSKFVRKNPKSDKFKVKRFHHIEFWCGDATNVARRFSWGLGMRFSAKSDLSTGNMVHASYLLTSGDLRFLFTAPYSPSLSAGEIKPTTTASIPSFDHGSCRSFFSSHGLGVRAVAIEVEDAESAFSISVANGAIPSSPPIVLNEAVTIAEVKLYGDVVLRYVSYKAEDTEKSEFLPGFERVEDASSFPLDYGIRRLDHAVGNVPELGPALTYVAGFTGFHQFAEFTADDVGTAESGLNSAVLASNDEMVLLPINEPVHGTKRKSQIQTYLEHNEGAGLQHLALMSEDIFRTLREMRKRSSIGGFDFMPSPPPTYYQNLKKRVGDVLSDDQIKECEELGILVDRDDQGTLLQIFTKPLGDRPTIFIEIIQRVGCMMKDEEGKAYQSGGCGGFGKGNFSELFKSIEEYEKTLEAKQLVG", "experiment": "HPPD activity assay, Arabidopsis wild-type HPPD", "parameters": "key to Normalized tolerance index TI: tolerance index relative to Arabidopsis wild-type HPPD (= 1)", "settings": "Arabidopsis HPPD Wildtype; normalized on Arabidopsis wild-type HPPD; Table 15", "protocol": "(§1) HPPD produces homogentisic acid and CO2 from 4-hydroxyphenylpyruvate (4-HPP) and O2. The activity assay for HPPD is based on the analysis of homogentisic acid by reversed phase HPLC.\n(§2) The assay mixture can contain 150 mM potassium phosphate buffer pH 7.0, 50 mM L-ascorbic acid, 1 μM FeSO4 and 7 μg of purified enzyme in a total volume of 1 ml.\n(§3) Inhibitors are dissolved in DMSO (dimethylsulfoxide) to a concentration of 20 mM or 0.5 mM, respectively. From this stock solution serial five-fold dilutions are prepared in DMSO, which are used in the assay. The respective inhibitor solution accounts for 1% of the assay volume. […] After a preincubation of 30 min the reaction is started by adding 4-HPP to a final concentration of 0.1 mM. The reaction is allowed to proceed for 120 min at room temperature. The reaction is stopped by addition of 100 μl of 4.5 M phosphoric acid.\n(§4) Activities are normalized by setting the uninhibited enzyme activity to 100%. IC50 values are calculated using non-linear regression.\n(§5) The assay mixture can contain 150 mM potassium phosphate buffer pH 7.0, 50 mM L-ascorbic acid, 100 μM Catalase (Sigma-Aldrich), 1 μM FeSO4 and 0.2 units of purified HPPD enzyme in a total volume of 505 μl. 1 unit is defined as the amount of enzyme that is required to produce 1 nmol of HGA per minute at 20° C.\n(§6) Inhibitors are dissolved in DMSO (dimethylsulfoxide) to a concentration of 0.5 mM. From this stock solution serial five-fold dilutions are prepared in DMSO, which are used in the assay. The respective inhibitor solution accounts for 1% of the assay volume. […] Activities are normalized by setting the uninhibited enzyme activity to 100%. IC50 values are calculated using non-linear regression.\n(§7) Using methods which are described in the above examples or well known in the art, purified, recombinant wildtype HPPD enzymes are characterized with respect to their kinetic properties and sensitivity towards HPPD inhibiting herbicides. Apparent michaelis constants (Km) and maximal reaction velocities (Vmax) are calculated by non-linear regression with the software GraphPad Prism 5 (GraphPad Software, La Jolla, USA) using a substrate inhibition model.\n(§8) Field performance of the HPPD enzyme, which is used as a herbicide tolerance trait, may depend not only on its lack of sensitivity towards HPPD inhibiting herbicides but also on its activity. To assess the potential performance of a herbicide tolerance trait a tolerance index (TI) is calculated using the following formula: […]\nEasy comparison and ranking of each trait is enabled by normalizing tolerance indexes on Arabidopsis wild-type HPPD."}, "[2]": {"target": "T2, Hordeum HPPD (SEQ ID: 2) (Hordeum vulgare, UniProt O48604, A164G/R146V/R147D/R148G)", "T2 construct": "His (N); made in house; host or cells: E. coli BL21 (DE3)", "T2 sequence (O48604 whole entry R146V/R147D/R148G/A164G)": "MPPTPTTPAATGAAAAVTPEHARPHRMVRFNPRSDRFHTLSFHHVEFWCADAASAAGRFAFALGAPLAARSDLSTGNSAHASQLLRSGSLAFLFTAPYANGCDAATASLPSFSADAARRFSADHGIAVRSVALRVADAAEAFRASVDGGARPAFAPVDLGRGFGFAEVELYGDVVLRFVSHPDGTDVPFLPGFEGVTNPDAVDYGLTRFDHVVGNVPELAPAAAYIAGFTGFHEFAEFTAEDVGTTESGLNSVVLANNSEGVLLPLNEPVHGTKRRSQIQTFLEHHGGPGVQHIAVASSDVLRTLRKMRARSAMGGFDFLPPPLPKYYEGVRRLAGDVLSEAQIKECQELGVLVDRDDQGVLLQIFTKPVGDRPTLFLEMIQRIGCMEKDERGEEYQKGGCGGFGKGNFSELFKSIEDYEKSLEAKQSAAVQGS", "experiment": "HPPD activity assay, Hordeum wild-type HPPD", "settings": "Hordeum HPPD Wildtype; normalized on Hordeum wild-type HPPD", "protocol": "as §1, §2, §3, §4, §5, §6, §7, §8"}, "[3]": {"target": "T3, Arabidopsis HPPD variant M335H, P336A, E363Q (Arabidopsis thaliana, UniProt P93836, E363Q/M335H/P336A)", "T3 construct": "PCR-based site directed mutagenesis of pEXP5-NT/TOPO®-AtHPPD is done; His6 (N); made in house; host or cells: E. coli BL21 (DE3)", "T3 sequence (P93836 whole entry M335H/P336A/E363Q)": "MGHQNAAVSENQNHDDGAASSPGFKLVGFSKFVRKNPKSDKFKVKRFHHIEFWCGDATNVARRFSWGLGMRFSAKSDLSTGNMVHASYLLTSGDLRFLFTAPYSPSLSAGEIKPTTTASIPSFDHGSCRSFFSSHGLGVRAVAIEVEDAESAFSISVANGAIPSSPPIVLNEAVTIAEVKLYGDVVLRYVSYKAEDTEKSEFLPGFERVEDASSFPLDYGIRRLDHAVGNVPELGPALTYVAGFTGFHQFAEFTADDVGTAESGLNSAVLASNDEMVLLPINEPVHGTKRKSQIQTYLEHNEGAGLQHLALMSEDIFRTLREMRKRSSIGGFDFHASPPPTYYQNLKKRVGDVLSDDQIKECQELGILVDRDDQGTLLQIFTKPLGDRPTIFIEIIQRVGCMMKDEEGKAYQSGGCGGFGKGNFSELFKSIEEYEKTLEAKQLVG", "experiment": "HPPD activity assay, Arabidopsis HPPD mutant M335H, P336A, E363Q", "settings": "normalized on Arabidopsis wild-type HPPD", "protocol": "as §1, §2, §3, §4, §5\nInhibitors are dissolved in DMSO (dimethylsulfoxide) to a concentration of 0.5 mM. […] IC50 values are calculated using non-linear regression. […]\nPurified, mutant HPPD enzymes are obtained by the methods described above. […] Apparent michaelis constants (Km) and maximal reaction velocities (Vmax) are calculated by non-linear regression with the software GraphPad Prism 5 (GraphPad Software, La Jolla, USA) using a substrate inhibition model.\nas §8, with “of the optimized HPPD enzyme,” for “of the HPPD enzyme,”, “herbicide tolerance trait may depend” for “herbicide tolerance trait, may depend”"}, "[4]": {"target": "T4, Hordeum HPPD variant G407C (Hordeum vulgare, UniProt O48604, A164G/G407C/R146V/R147D/R148G)", "T4 construct": "His (N); made in house; host or cells: E. coli BL21 (DE3)", "T4 sequence (O48604 whole entry R146V/R147D/R148G/A164G/G407C)": "as the sequence (O48604 whole entry R146V/R147D/R148G/A164G) above, with G407C counted along it", "experiment": "HPPD activity assay, Hordeum HPPD mutant G407C", "settings": "normalized on Hordeum wild-type HPPD", "protocol": "as §1, §2, §3, §4, §5, §6\n(§9) Purified, mutant HPPD enzymes are obtained by the methods described above. Dose response and kinetic measurements are carried out using the described HPPD activity assay. Apparent michaelis constants (Km) and maximal reaction velocities (Vmax) are calculated by non-linear regression with the software GraphPad Prism 5 (GraphPad Software, La Jolla, USA) using a substrate inhibition model.\nas §8, with “of the optimized HPPD enzyme,” for “of the HPPD enzyme,”, “herbicide tolerance trait may depend” for “herbicide tolerance trait, may depend”\n(§10) Easy comparison and ranking of each trait is enabled by normalizing tolerance indexes on Arabidopsis or Hordeum wild-type HPPD."}, "[5]": {"target": "T5, Hordeum HPPD variant L320N (Hordeum vulgare, UniProt O48604, A164G/L320N/R146V/R147D/R148G)", "T5 construct": "His (N); made in house; host or cells: E. coli BL21 (DE3)", "T5 sequence (O48604 whole entry R146V/R147D/R148G/A164G/L320N)": "as the sequence (O48604 whole entry R146V/R147D/R148G/A164G) above, with L320N counted along it", "experiment": "HPPD activity assay, Hordeum HPPD mutant L320N", "settings": "normalized on Hordeum wild-type HPPD", "protocol": "as §1, §2, §3, §4, §5, §6, §9\nas §8, with “of the optimized HPPD enzyme,” for “of the HPPD enzyme,”, “herbicide tolerance trait may depend” for “herbicide tolerance trait, may depend”\nas §10"}, "[6]": {"target": "T6, Hordeum HPPD variant L334E (Hordeum vulgare, UniProt O48604, A164G/L334E/R146V/R147D/R148G)", "T6 construct": "His (N); made in house; host or cells: E. coli BL21 (DE3)", "T6 sequence (O48604 whole entry R146V/R147D/R148G/A164G/L334E)": "as the sequence (O48604 whole entry R146V/R147D/R148G/A164G) above, with L334E counted along it", "experiment": "HPPD activity assay, Hordeum HPPD mutant L334E", "settings": "normalized on Hordeum wild-type HPPD", "protocol": "as §1, §2, §3, §4, §5, §6, §9\nas §8, with “of the optimized HPPD enzyme,” for “of the HPPD enzyme,”, “herbicide tolerance trait may depend” for “herbicide tolerance trait, may depend”\nas §10"}, "[7]": {"target": "T7, Hordeum HPPD variant L353M, P321R, L320N (Hordeum vulgare, UniProt O48604, L320N/L353M/P321R)", "T7 construct": "His (N); made in house; host or cells: E. coli BL21 (DE3)", "T7 sequence (O48604 whole entry R146V/R147D/R148G/A164G/L320N/P321R/L353M)": "as the sequence (O48604 whole entry R146V/R147D/R148G/A164G) above, with L320N, P321R, L353M counted along it", "experiment": "HPPD activity assay, Hordeum HPPD mutant L353M, P321R, L320N", "settings": "normalized on Hordeum wild-type HPPD", "protocol": "as §1, §2, §3, §4, §5, §6, §9\nas §8, with “of the optimized HPPD enzyme,” for “of the HPPD enzyme,”, “herbicide tolerance trait may depend” for “herbicide tolerance trait, may depend”\nas §10"}, "[8]": {"target": "T8, Hordeum HPPD variant L353M, P321R, V212I (Hordeum vulgare, UniProt O48604, L353M/P321R/V212I)", "T8 construct": "His (N); made in house; host or cells: E. coli BL21 (DE3)", "T8 sequence (O48604 whole entry R146V/R147D/R148G/A164G/V212I/P321R/L353M)": "as the sequence (O48604 whole entry R146V/R147D/R148G/A164G) above, with V212I, P321R, L353M counted along it", "experiment": "HPPD activity assay, Hordeum HPPD mutant L353M, P321R, V212I", "settings": "normalized on Hordeum wild-type HPPD", "protocol": "as §1, §2, §3, §4, §5, §6, §9\nas §8, with “of the optimized HPPD enzyme,” for “of the HPPD enzyme,”, “herbicide tolerance trait may depend” for “herbicide tolerance trait, may depend”\nas §10"}, "[9]": {"target": "T9, Hordeum HPPD variant L353M, P321R, V212I, L334E (Hordeum vulgare, UniProt O48604, L334E/L353M/P321R/V212I)", "T9 construct": "His (N); made in house; host or cells: E. coli BL21 (DE3)", "T9 sequence (O48604 whole entry R146V/R147D/R148G/A164G/V212I/P321R/L334E/L353M)": "as the sequence (O48604 whole entry R146V/R147D/R148G/A164G) above, with V212I, P321R, L334E, L353M counted along it", "experiment": "HPPD activity assay, Hordeum HPPD mutant L353M, P321R, V212I, L334E", "settings": "normalized on Hordeum wild-type HPPD", "protocol": "as §1, §2, §3, §4, §5, §6, §9\nas §8, with “of the optimized HPPD enzyme,” for “of the HPPD enzyme,”, “herbicide tolerance trait may depend” for “herbicide tolerance trait, may depend”\nas §10"}, "[10]": {"target": "T10, Hordeum HPPD variant V212L (Hordeum vulgare, UniProt O48604, A164G/R146V/R147D/R148G/V212L)", "T10 construct": "His (N); made in house; host or cells: E. coli BL21 (DE3)", "T10 sequence (O48604 whole entry R146V/R147D/R148G/A164G/V212L)": "as the sequence (O48604 whole entry R146V/R147D/R148G/A164G) above, with V212L counted along it", "experiment": "HPPD activity assay, Hordeum HPPD mutant V212L", "settings": "normalized on Hordeum wild-type HPPD", "protocol": "as §1, §2, §3, §4, §5, §6, §9\nas §8, with “of the optimized HPPD enzyme,” for “of the HPPD enzyme,”, “herbicide tolerance trait may depend” for “herbicide tolerance trait, may depend”\nas §10"}, "[11]": {"target": "T11, Hordeum HPPD variant L320Q (Hordeum vulgare, UniProt O48604, A164G/L320Q/R146V/R147D/R148G)", "T11 construct": "His (N); made in house; host or cells: E. coli BL21 (DE3)", "T11 sequence (O48604 whole entry R146V/R147D/R148G/A164G/L320Q)": "as the sequence (O48604 whole entry R146V/R147D/R148G/A164G) above, with L320Q counted along it", "experiment": "HPPD activity assay, Hordeum HPPD mutant L320Q", "settings": "normalized on Hordeum wild-type HPPD", "protocol": "as §1, §2, §3, §4, §5, §6, §9\nas §8, with “of the optimized HPPD enzyme,” for “of the HPPD enzyme,”, “herbicide tolerance trait may depend” for “herbicide tolerance trait, may depend”\nas §10"}, "[12]": {"target": "T12, Hordeum HPPD variant L320H, P321A (Hordeum vulgare, UniProt O48604, L320H/P321A)", "T12 construct": "His (N); made in house; host or cells: E. coli BL21 (DE3)", "T12 sequence (O48604 whole entry R146V/R147D/R148G/A164G/L320H/P321A)": "as the sequence (O48604 whole entry R146V/R147D/R148G/A164G) above, with L320H, P321A counted along it", "experiment": "HPPD activity assay, Hordeum HPPD mutant L320H, P321A", "settings": "normalized on Hordeum wild-type HPPD", "protocol": "as §1, §2, §3, §4, §5, §6, §9\nas §8, with “of the optimized HPPD enzyme,” for “of the HPPD enzyme,”, “herbicide tolerance trait may depend” for “herbicide tolerance trait, may depend”\nas §10"}}, "data": [{"smiles": "CC1(C)c2cccnc2C(O)=C(c2ccc(Br)cc2C(F)(F)F)S1(=O)=O", "note": "[Inhibitor 5, 7-[4-bromo-2-(trifluoromethyl)phenyl]-5,5-dimethyl-6,6-dioxo-thiopyrano[4,3-b]pyridin-8-ol]", "values": [{"measurement": "Normalized tolerance index TI", "setting": "[1]", "result": 1}, {"measurement": "Normalized tolerance index TI", "setting": "[2]", "result": 1}, {"measurement": "Normalized tolerance index TI", "setting": "[3]", "result": 0.2}, {"measurement": "Normalized tolerance index TI", "setting": "[4]", "result": 4.3}, {"measurement": "Normalized tolerance index TI", "setting": "[5]", "result": 2.4}, {"measurement": "Normalized tolerance index TI", "setting": "[6]", "result": 2.1}, {"measurement": "Normalized tolerance index TI", "setting": "[7]", "result": 3.2}, {"measurement": "Normalized tolerance index TI", "setting": "[8]", "result": 3.3}, {"measurement": "Normalized tolerance index TI", "setting": "[9]", "result": 3.4}, {"measurement": "Normalized tolerance index TI", "setting": "[10]", "result": 1.1}, {"measurement": "Normalized tolerance index TI", "setting": "[11]", "result": 2.9}, {"measurement": "Normalized tolerance index TI", "setting": "[12]", "result": 6.6}]}]}
